Assays:
[1] = Phase I metabolic stability in mouse liver microsomes with NADPH; format: in vitro ADME; conditions: 60 min incubation, 1 μM compound
human D3R = human D3R (Homo sapiens, UniProt P35462); assay: Radioligand competition binding, [3H]N-methylspiperone, D3R; conditions: ratio of Ki values; Table 2
Chain of human D3R (P35462 whole entry): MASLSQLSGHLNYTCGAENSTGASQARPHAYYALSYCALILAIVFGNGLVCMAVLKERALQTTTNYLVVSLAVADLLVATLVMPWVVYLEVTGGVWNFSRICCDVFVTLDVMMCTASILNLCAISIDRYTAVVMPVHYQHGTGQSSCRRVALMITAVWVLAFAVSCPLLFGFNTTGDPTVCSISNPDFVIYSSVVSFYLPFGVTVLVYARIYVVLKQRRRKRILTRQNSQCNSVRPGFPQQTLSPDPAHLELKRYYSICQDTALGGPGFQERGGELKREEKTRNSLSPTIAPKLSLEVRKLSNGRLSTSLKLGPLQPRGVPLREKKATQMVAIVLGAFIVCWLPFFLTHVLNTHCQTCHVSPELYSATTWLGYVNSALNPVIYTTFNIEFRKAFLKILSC

In the case of “1-(4-(2,3-Dichlorophenyl)piperazin-1-yl)-4-(4-(quinolin-3-yl)-1H-1,2,3-triazol-1-yl)butan-2-ol [17b]”, the “percent original compound remaining” value [1] is reported as 26% and the “Receptor selectivity D2/D3” value (human D3R) is reported as 14.

For “5-(4-(4-(4-(2-Methoxyphenyl)piperazin-1-yl)butyl)-1H-1,2,3-triazol-1-yl)quinoline [9d]”, the “Receptor selectivity D2/D3” value (human D3R) was 6.3 and the “Receptor selectivity D4/D3” value (human D3R) was 40.
